In ChEMBL document CHEMBL1201862, “PubChem BioAssay data set” (2004):
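48-hour exposure; five concentrations; linearly interpolated endpoints. GI50: concentration for 50% inhibition of growth.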 Calls of active or inactive are those of the source. No stated cut-off is given here; in the data, active = GI50 up to about 1.1 µM and inactive = higher.

Experiments:
Experiment in all cases: inhibition of tumour cell growth, NCI panel, 48 h
HL-60 = system: HL-60
HOP-62 = system: HOP-62
HOP-92 = system: HOP-92
LOX IMVI = system: LOX IMVI
MCF7 = system: MCF7
MDA-MB-231 = system: MDA-MB-231
Malme-3M = system: Malme-3M
NCI-H226 = system: NCI-H226
NCI-H23 = system: NCI-H23
NCI-H460 = system: NCI-H460
PC-3 = system: PC-3
RXF 393 = system: RXF 393
SF-268 = system: SF-268
SK-OV-3 = system: SK-OV-3
SN12C = system: SN12C
T47D = system: T47D
TK-10 = system: TK-10
UACC-62 = system: UACC-62
Hs-578T = system: Hs-578T

Compound	GI50 (HL-60)	GI50 (HOP-62)	GI50 (HOP-92)	GI50 (LOX IMVI)	GI50 (MCF7)	GI50 (MDA-MB-231)	GI50 (Malme-3M)	GI50 (NCI-H226)	GI50 (NCI-H23)	GI50 (NCI-H460)	GI50 (PC-3)	GI50 (RXF 393)	GI50 (SF-268)	GI50 (SK-OV-3)	GI50 (SN12C)	GI50 (T47D)	GI50 (TK-10)	GI50 (UACC-62)	GI50 (Hs-578T)
O=C(O)C1CCCCN1CCc1c[nH]c2ccccc12 (configuration not stated)	> 100 µM (inactive)	> 100 µM (inactive)	30.7 µM (inactive)	> 100 µM (inactive)	> 100 µM (inactive)	> 100 µM (inactive)	> 100 µM (inactive)	> 100 µM (inactive)	> 100 µM (inactive)	> 100 µM (inactive)	> 100 µM (inactive)	> 100 µM (inactive)	> 100 µM (inactive)	> 100 µM (inactive)	> 100 µM (inactive)	> 100 µM (inactive)	> 100 µM (inactive)	> 100 µM (inactive)	–
Nc1ccc(-c2nc3ccccc3s2)cc1Cl	> 92.3 µM (inactive)	18.8 µM (inactive)	> 44.5 µM (inactive)	46.8 µM (inactive)	< 0.01 µM (active)	> 92.9 µM (inactive)	> 100 µM (inactive)	0.571 µM (active)	69.3 µM (inactive)	–	> 73.6 µM (inactive)	> 39.8 µM (inactive)	67 µM (inactive)	> 73.8 µM (inactive)	> 100 µM (inactive)	–	< 0.01 µM (active)	> 100 µM (inactive)	56 µM (inactive)
CC1CC/C(=C\c2ccc(N(C)C)cc2)C(=O)/C1=C/c1ccc(N(C)C)cc1 (configuration not stated)	–	> 100 µM (inactive)	–	> 100 µM (inactive)	> 100 µM (inactive)	> 100 µM (inactive)	0.228 µM (active)	> 100 µM (inactive)	> 100 µM (inactive)	–	> 100 µM (inactive)	–	–	> 100 µM (inactive)	> 100 µM (inactive)	> 100 µM (inactive)	> 100 µM (inactive)	> 100 µM (inactive)	–
CCOC(=O)C1(C)CCCc2sc(N)c(C#N)c21 (configuration not stated)	> 100 µM (inactive)	> 100 µM (inactive)	> 100 µM (inactive)	–	> 100 µM (inactive)	> 100 µM (inactive)	> 100 µM (inactive)	> 100 µM (inactive)	> 100 µM (inactive)	> 100 µM (inactive)	> 100 µM (inactive)	> 100 µM (inactive)	–	–	> 100 µM (inactive)	–	> 100 µM (inactive)	> 100 µM (inactive)	> 100 µM (inactive)
CCOC(=O)N1CCC2C(=C(C)C(C)C3=C2C(=O)c2ccccc2C3=O)C1 (configuration not stated)	2.07 µM (inactive)	4.1 µM (inactive)	5.41 µM (inactive)	3.61 µM (inactive)	4.21 µM (inactive)	4.07 µM (inactive)	1.82 µM (inactive)	–	2.76 µM (inactive)	–	4.4 µM (inactive)	> 10 µM (inactive)	> 10 µM (inactive)	> 10 µM (inactive)	3.86 µM (inactive)	9.55 µM (inactive)	> 10 µM (inactive)	4.41 µM (inactive)	–
O=C(/C=C/c1ccccc1)Oc1ccc(C(=O)/C=C/c2ccc(Cl)cc2)cc1	71.1 µM (inactive)	> 100 µM (inactive)	–	–	36.4 µM (inactive)	> 100 µM (inactive)	> 100 µM (inactive)	–	–	15.8 µM (inactive)	59.7 µM (inactive)	97.3 µM (inactive)	82.2 µM (inactive)	> 100 µM (inactive)	> 100 µM (inactive)	66.7 µM (inactive)	> 100 µM (inactive)	> 100 µM (inactive)	–
CCN(CC)c1ccc(/C=C/C(=O)c2cc(C(C)(C)C)c(O)c(C(C)(C)C)c2)cc1	3.37 µM (inactive)	27 µM (inactive)	> 100 µM (inactive)	5.78 µM (inactive)	3.64 µM (inactive)	9.2 µM (inactive)	> 100 µM (inactive)	39.3 µM (inactive)	9.77 µM (inactive)	14.9 µM (inactive)	9.18 µM (inactive)	2.7 µM (inactive)	7.45 µM (inactive)	28.2 µM (inactive)	27.4 µM (inactive)	–	5.71 µM (inactive)	6.81 µM (inactive)	5.93 µM (inactive)
CCOC(=O)CCCSCCCC(=O)CCCSCCCC(=O)OCC	> 100 µM (inactive)	> 100 µM (inactive)	> 100 µM (inactive)	> 100 µM (inactive)	> 100 µM (inactive)	> 100 µM (inactive)	–	–	> 100 µM (inactive)	> 100 µM (inactive)	> 100 µM (inactive)	–	> 100 µM (inactive)	> 100 µM (inactive)	> 100 µM (inactive)	> 100 µM (inactive)	> 100 µM (inactive)	> 100 µM (inactive)	–
CC(C)C[C@H](NC(=O)[C@H](Cc1ccccc1)NC(=O)c1cnccn1)B(O)O [BORTEZOMIB]	< 0.01 µM (active)	< 0.01 µM (active)	< 0.01 µM (active)	0.01 µM (active)	< 0.01 µM (active)	< 0.01 µM (active)	< 0.01 µM (active)	–	< 0.01 µM (active)	< 0.01 µM (active)	< 0.01 µM (active)	< 0.01 µM (active)	< 0.01 µM (active)	0.0329 µM (active)	< 0.01 µM (active)	< 0.01 µM (active)	< 0.01 µM (active)	< 0.01 µM (active)	–
CN(C)c1ccc(-c2[nH]c(=O)c3ccccc3[n+]2C)cc1	83.8 µM (inactive)	> 100 µM (inactive)	60.7 µM (inactive)	–	46.7 µM (inactive)	> 100 µM (inactive)	47.6 µM (inactive)	40.6 µM (inactive)	60 µM (inactive)	> 100 µM (inactive)	–	> 100 µM (inactive)	> 100 µM (inactive)	> 100 µM (inactive)	> 100 µM (inactive)	41.3 µM (inactive)	> 100 µM (inactive)	47.5 µM (inactive)	> 100 µM (inactive)
[O-][n+]1c2cccc(O)c2[n+]([O-])c2cccc(O)c21	47.9 µM (inactive)	27.9 µM (inactive)	22.7 µM (inactive)	56.8 µM (inactive)	20.7 µM (inactive)	–	–	–	94.6 µM (inactive)	30.1 µM (inactive)	53.1 µM (inactive)	60.4 µM (inactive)	31.8 µM (inactive)	45.7 µM (inactive)	–	40.2 µM (inactive)	23.4 µM (inactive)	–	> 100 µM (inactive)
O=c1[nH]nc(-c2cccc([N+](=O)[O-])c2)[nH]1	> 100 µM (inactive)	> 100 µM (inactive)	–	> 100 µM (inactive)	> 100 µM (inactive)	–	> 100 µM (inactive)	> 100 µM (inactive)	> 100 µM (inactive)	> 100 µM (inactive)	> 100 µM (inactive)	> 100 µM (inactive)	> 100 µM (inactive)	–	> 100 µM (inactive)	> 100 µM (inactive)	> 100 µM (inactive)	> 100 µM (inactive)	47.3 µM (inactive)
CC(=O)OCc1cc(=O)n2c([nH]c3ccccc32)c1C#N	42.3 µM (inactive)	–	84.3 µM (inactive)	68.7 µM (inactive)	> 100 µM (inactive)	48.4 µM (inactive)	89.1 µM (inactive)	> 100 µM (inactive)	> 100 µM (inactive)	18.6 µM (inactive)	40.6 µM (inactive)	59.3 µM (inactive)	–	80.7 µM (inactive)	67 µM (inactive)	78.5 µM (inactive)	82.4 µM (inactive)	59.7 µM (inactive)	–
COC(=O)N1CC(=O)C(C(=O)NC23CC4CC(CC(C4)C2)C3)C1 (configuration not stated)	32.1 µM (inactive)	–	> 100 µM (inactive)	–	45.3 µM (inactive)	42.7 µM (inactive)	78.7 µM (inactive)	> 100 µM (inactive)	> 100 µM (inactive)	78.7 µM (inactive)	52 µM (inactive)	82 µM (inactive)	37.7 µM (inactive)	–	–	47.8 µM (inactive)	> 100 µM (inactive)	69.7 µM (inactive)	–
Cc1nn(-c2ccccc2)c2nc(S)cnc12	> 100 µM (inactive)	> 100 µM (inactive)	> 100 µM (inactive)	> 100 µM (inactive)	> 100 µM (inactive)	–	> 100 µM (inactive)	> 100 µM (inactive)	> 100 µM (inactive)	> 100 µM (inactive)	> 100 µM (inactive)	> 100 µM (inactive)	> 100 µM (inactive)	> 100 µM (inactive)	> 100 µM (inactive)	> 100 µM (inactive)	> 100 µM (inactive)	> 100 µM (inactive)	> 100 µM (inactive)
CN(C)C(=O)C(F)(F)C(c1ccccc1Br)C1C(=O)N(C)C(=O)N(C)C1=O (configuration not stated)	–	> 100 µM (inactive)	> 100 µM (inactive)	> 100 µM (inactive)	> 100 µM (inactive)	> 100 µM (inactive)	> 100 µM (inactive)	> 100 µM (inactive)	> 100 µM (inactive)	> 100 µM (inactive)	> 100 µM (inactive)	> 100 µM (inactive)	> 100 µM (inactive)	> 100 µM (inactive)	–	> 100 µM (inactive)	> 100 µM (inactive)	> 100 µM (inactive)	–
CCOC(=O)C1=C(C)OC(=O)[C@@]2(OC)C=C(Cl)[C@@]12C	33 µM (inactive)	> 100 µM (inactive)	> 100 µM (inactive)	> 100 µM (inactive)	> 100 µM (inactive)	> 100 µM (inactive)	> 100 µM (inactive)	> 100 µM (inactive)	> 100 µM (inactive)	> 100 µM (inactive)	> 100 µM (inactive)	> 100 µM (inactive)	> 100 µM (inactive)	> 100 µM (inactive)	> 100 µM (inactive)	–	> 100 µM (inactive)	> 100 µM (inactive)	> 100 µM (inactive)
